Test results published in US20160313301A1, “METHOD FOR PREDICTING ANTITUMOR EFFICACY OF HSP90 INHIBITOR IN CANCER TREATMENT” (NIPPON KAYAKU KABUSHIKI KAISHA, priority 2013, published 2016).

Columns and labels:
[1] = test system: client proteins and HSP90-related proteins in TOV-21G tumor; assay: Immunoblot: change in expression amount of proteins in TOV-21G tumor after administration; assay type: in vivo, human; details: 40 mg/kg tail vein
Method: (§1) Thirty micrograms of total protein was subjected to electrophoresis in 8% acrylamide gel. Then, the protein was transferred onto a PVDF membrane at a voltage of 100 V for 60 min at 4 °C. The PVDF membrane on which the protein had been transferred was blocked in TBS-Tween (0.1%) containing 5% milk at normal temperature for 60 min, followed by incubating with each of primary antibodies described below overnight at 4 °C. • Primary antibody (supplier, product number, dilution ratio, exposure time) • EGFR (Santa Cruz, sc-003, 1:500, 1 min) • HER2 (Santa Cruz, sc-284, 1:2000, 5 sec) • HER3 (Santa Cruz, sc-285, 1:400, 1 min) • Met (Santa Cruz, sc-161, 1:500, 5 min) • IGF-1R (Cell Signaling, #3027, 1:500, 15 sec) • Raf-1 (Santa Cruz, sc-133, 1:300, 5 min) • Stat3 (BD Transduction Laboratory, 610189, 1:500, 15 sec) • pAkt (Cell Signaling, #4058S, 1:500, 1 min) • Akt (Cell Signaling, #4691S, 1:2000, 15 sec) • pERK (Santa Cruz, sc-16982-R, 1:500, 1 min) • ERK (Invitrogen, 44-654G, 1:1000, 15 sec) • mTOR (Cell Signaling, #2983S, 1:500, 15 sec) • MEK (Cell Signaling, #9122S, 1:500, 1 min) • HSP90 (Enzo Life Science, SPA-830, 1:500, 15 sec) • HSP70 (Enzo Life Science, SPA-810, 1:2000, 15 sec) • Actin (Santa Cruz, sc-8432/HRP, 1:300, 5 min)
(§2) After incubation, the blot membrane was washed with TBS-Tween (0.1%) at normal temperature for 10 min three times to thereby remove excessive primary antibodies. Then, the membrane was incubated with an appropriate secondary antibody (anti-rabbit IgG HRP conjugate or anti-mouse IgG HRP conjugate) at normal temperature for 60 min. The membrane was washed with TBS-Tween (0.1%) at normal temperature for 10 min three times to thereby remove excessive secondary antibodies. Then, the membrane was incubated with ECL Western Blotting Detection Reagents (GE Healthcare) for 2 min, followed by exposing to an X-ray film. Thus, the signal of the intended protein was detected.
(§3) Tumors to be transplanted derived from human ovarian cancer cell lines SK-OV-3 and TOV-21G were prepared in the same manner as in Example 1.
(§4) Protein extraction liquid was obtained from each tumor as follows. The human ovarian cancer tumors maintained by passage in SCID mice were transplanted subcutaneously to the dorsums of SCID mice with trocars. When the tumor volume of each tumor reached about 300 mm^3, the triazole (A-1) synthesized as the HSP90 inhibitor in Synthetic Example 1 was administered into a tail vein of each of the mice at a dose of 40 mg/kg in the same manner as in Example 1. The tumors were removed before and 4 and 24 hours after administration. At each time point, the tumors were removed from three mice for the SK-OV-3 tumor and two mice for the TOV-21G tumor. Protein extraction liquids were obtained in the same manner as in Example 1. The total protein amount in each of the extraction liquids was quantified in the same manner as in Example 1.
(§5) The immunoblot method was used to verify change in expression amounts of the client proteins and the HSP90-related proteins in the SK-OV-3 and TOV-21G tumors to which the triazole compound (A-1) had been administered, in the same manner as in Example 1. The types and dilution ratios of primary antibodies and secondary antibodies used were the same as in Example 1.

[2] = test system: client proteins and HSP90-related proteins in SK-OV-3 tumor; assay: Immunoblot: change in expression amount of proteins in SK-OV-3 tumor after administration; assay type: in vivo, human; details: 40 mg/kg tail vein
Method: as §1, §2, §3, §4, §5

[3] = SK-OV-3 tumor after administration
[4] = SK-OV-3 tumor, 4 hours after administration

CC(C)c1cc(-c2n[nH]c(=O)n2-c2ccc(CN3CCN(C)CC3)cc2)c(O)cc1O [A-1, 5-(2,4-dihydroxy-5-isopropyl-phenyl)-4-[4-(4-methyl-piperazin-1-ylmethyl)-phenyl]-2,4-dihydro-[1,2,4]triazol-3-one]
expression amount of total Akt [1]: not changed
expression amount of total ERK [1]: not changed
expression level of EGFR [1]: decreased
expression level of HER2 [1]: decreased
expression level of IGF-1R [1]: decreased
expression level of Met [1]: decreased
expression level of mTOR [1]: decreased
expression level of pAkt [1]: decreased
expression amount of total Akt [2, 3]: not changed
expression amount of total ERK [2, 3]: not changed
expression level of EGFR [2, 4]: significantly decreased
expression level of IGF-1R [2, 4]: significantly decreased
expression level of Met [2, 4]: significantly decreased
expression level of mTOR [2, 4]: significantly decreased
expression level of pAkt [2, 4]: significantly decreased
expression level of pERK [2, 4]: significantly decreased
